# Measurements: ChEMBL document CHEMBL1201862, “PubChem BioAssay data set” (2004)
#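 Growth conditions: 96-well plates. Treatment: test compound, 48 hours, 5 concentrations. Analysis: linear interpolation between bracketing concentrations; unreached endpoints set to highest concentration. Abbreviation: GI50, concentration required for 50% inhibition of growth.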 The source made the active and inactive calls. Cut-off read from the data, not from the text of the source: active = GI50 up to about 1.1 µM and inactive = higher.
# Experiments:
# Assay in all cases: NCI tumour cell line growth inhibition, 48 h
# 786-0 = tested on: 786-0
# BT-549 = tested on: BT-549
# COLO 205 = tested on: COLO 205
# HOP-92 = tested on: HOP-92
# IGROV-1 = tested on: IGROV-1
# K562 = tested on: K562
# MDA-N = tested on: MDA-N
# NCI/ADR-RES = tested on: NCI/ADR-RES
# OVCAR-4 = tested on: OVCAR-4
# PC-3 = tested on: PC-3
# SF-539 = tested on: SF-539
# SK-MEL-28 = tested on: SK-MEL-28
# SK-MEL-2 = tested on: SK-MEL-2
# SN12C = tested on: SN12C
# SW-620 = tested on: SW-620
# HT-29 = tested on: HT-29
# Hs-578T = tested on: Hs-578T
# SF-268 = tested on: SF-268
SMILES,GI50 (786-0),GI50 (BT-549),GI50 (COLO 205),GI50 (HOP-92),GI50 (IGROV-1),GI50 (K562),GI50 (MDA-N),GI50 (NCI/ADR-RES),GI50 (OVCAR-4),GI50 (PC-3),GI50 (SF-539),GI50 (SK-MEL-28),GI50 (SK-MEL-2),GI50 (SN12C),GI50 (SW-620),GI50 (HT-29),GI50 (Hs-578T),GI50 (SF-268)
CC1(C)OC(CCC#N)CN1C(=O)OCc1ccccc1 (configuration not stated),> 100 µM (inactive),20.7 µM (inactive),> 100 µM (inactive),> 100 µM (inactive),> 100 µM (inactive),> 100 µM (inactive),> 100 µM (inactive),> 100 µM (inactive),> 100 µM (inactive),> 100 µM (inactive),> 100 µM (inactive),> 100 µM (inactive),> 100 µM (inactive),> 10 µM (inactive),> 100 µM (inactive),,,
Cc1cc2nc3n(c2cc1C)C(c1c(F)cccc1F)SC3 (configuration not stated),19.3 µM (inactive),28.1 µM (inactive),20.7 µM (inactive),,> 10 µM (inactive),17.6 µM (inactive),,16.8 µM (inactive),22.9 µM (inactive),17.7 µM (inactive),19.9 µM (inactive),19.1 µM (inactive),18.5 µM (inactive),19.5 µM (inactive),21.3 µM (inactive),18.5 µM (inactive),15.4 µM (inactive),27.6 µM (inactive)
O=C1/C(=C/c2ccccc2)N=C2Sc3c([nH]cnc3=O)N12,> 100 µM (inactive),,> 100 µM (inactive),> 100 µM (inactive),> 100 µM (inactive),28.2 µM (inactive),,> 100 µM (inactive),35.1 µM (inactive),> 100 µM (inactive),> 100 µM (inactive),> 100 µM (inactive),> 100 µM (inactive),> 100 µM (inactive),> 100 µM (inactive),> 100 µM (inactive),73.1 µM (inactive),> 100 µM (inactive)
O=C(CSCC(=O)N/N=C/c1cc(I)cc(I)c1O)N/N=C/c1cc(I)cc(I)c1O,5.83 µM (inactive),,23.1 µM (inactive),39.5 µM (inactive),8.28 µM (inactive),11.1 µM (inactive),,17.2 µM (inactive),47 µM (inactive),32.3 µM (inactive),7.57 µM (inactive),18.9 µM (inactive),23.7 µM (inactive),23.2 µM (inactive),13.6 µM (inactive),32.9 µM (inactive),6.78 µM (inactive),4.34 µM (inactive)
O=C(CN1CCCCC1)Nc1ccc2c(c1)C1Oc3ccccc3CC1CO2 (configuration not stated),20.7 µM (inactive),19.9 µM (inactive),13.3 µM (inactive),18.3 µM (inactive),21.1 µM (inactive),58.9 µM (inactive),19 µM (inactive),23.9 µM (inactive),,17.7 µM (inactive),19.1 µM (inactive),,20.2 µM (inactive),28.4 µM (inactive),18.8 µM (inactive),14.5 µM (inactive),,34.2 µM (inactive)
COc1ccc(-c2c(C#N)c(S)n(NS(=O)(=O)c3ccc(C)cc3)c(=O)c2C#N)cc1,15.6 µM (inactive),13.4 µM (inactive),18.2 µM (inactive),33.1 µM (inactive),14.6 µM (inactive),18.7 µM (inactive),17.6 µM (inactive),20.3 µM (inactive),23.7 µM (inactive),18.2 µM (inactive),14.6 µM (inactive),24.2 µM (inactive),15.3 µM (inactive),17.2 µM (inactive),18.6 µM (inactive),31.6 µM (inactive),,23.4 µM (inactive)
COc1ccc(N2C(=O)C3c4[nH]c5ccccc5c4C4c5ccccc5CC4C3C2=O)cc1 (configuration not stated),> 100 µM (inactive),> 100 µM (inactive),> 100 µM (inactive),> 100 µM (inactive),> 100 µM (inactive),> 100 µM (inactive),> 100 µM (inactive),> 100 µM (inactive),> 100 µM (inactive),> 100 µM (inactive),> 100 µM (inactive),> 100 µM (inactive),> 100 µM (inactive),> 100 µM (inactive),> 100 µM (inactive),> 100 µM (inactive),,> 100 µM (inactive)
COc1ccc(C(=O)c2[nH]c(Nc3cc(C)ccn3)c(C(=S)Nc3ccccc3)c2N)cc1,21 µM (inactive),19.6 µM (inactive),19.4 µM (inactive),,12.2 µM (inactive),25.1 µM (inactive),15.3 µM (inactive),3.49 µM (inactive),10.9 µM (inactive),21.2 µM (inactive),18.3 µM (inactive),17 µM (inactive),10.1 µM (inactive),18.2 µM (inactive),25.3 µM (inactive),17.5 µM (inactive),,21.9 µM (inactive)
CCOC(=O)c1c(-c2ccc(OC)cc2)c(C#N)c(=S)n(C2OC(CO)C(O)C(O)C2O)c1C (configuration not stated),> 100 µM (inactive),,> 100 µM (inactive),> 100 µM (inactive),> 100 µM (inactive),> 100 µM (inactive),> 100 µM (inactive),> 100 µM (inactive),> 100 µM (inactive),> 100 µM (inactive),> 100 µM (inactive),> 100 µM (inactive),> 100 µM (inactive),> 100 µM (inactive),> 100 µM (inactive),> 100 µM (inactive),,> 100 µM (inactive)
O=c1[nH]nc(Cc2ccccc2)n1C1CCCC1,> 100 µM (inactive),,> 100 µM (inactive),,> 100 µM (inactive),> 100 µM (inactive),> 100 µM (inactive),> 100 µM (inactive),> 100 µM (inactive),> 100 µM (inactive),> 100 µM (inactive),> 100 µM (inactive),,> 100 µM (inactive),> 100 µM (inactive),> 100 µM (inactive),> 100 µM (inactive),> 100 µM (inactive)
O=CNNC(=O)Nc1ccc(Cl)cc1,> 100 µM (inactive),,> 100 µM (inactive),26.9 µM (inactive),> 100 µM (inactive),> 100 µM (inactive),,> 100 µM (inactive),> 100 µM (inactive),,> 100 µM (inactive),> 100 µM (inactive),,> 100 µM (inactive),> 100 µM (inactive),> 100 µM (inactive),> 100 µM (inactive),> 100 µM (inactive)
C=CC1(O)CCCC=C1COCc1ccccc1 (configuration not stated),> 100 µM (inactive),,> 100 µM (inactive),52 µM (inactive),16.6 µM (inactive),32.2 µM (inactive),73.8 µM (inactive),> 100 µM (inactive),38.4 µM (inactive),67.8 µM (inactive),,71 µM (inactive),> 100 µM (inactive),70 µM (inactive),,93.5 µM (inactive),> 100 µM (inactive),67 µM (inactive)
CN(C)c1n/c(=N/Cc2cccs2)ss1,9.98 µM (inactive),,> 10 µM (inactive),> 10 µM (inactive),> 10 µM (inactive),3.4 µM (inactive),> 10 µM (inactive),> 10 µM (inactive),> 10 µM (inactive),> 10 µM (inactive),> 10 µM (inactive),> 10 µM (inactive),,> 10 µM (inactive),> 10 µM (inactive),> 10 µM (inactive),> 10 µM (inactive),> 10 µM (inactive)
CC(C)(C)C#C[P+](c1ccccc1)(c1ccccc1)c1ccccc1,0.337 µM (active),,0.17 µM (active),0.194 µM (active),0.578 µM (active),0.0498 µM (active),,,0.211 µM (active),,0.373 µM (active),0.0728 µM (active),0.409 µM (active),0.192 µM (active),0.152 µM (active),0.292 µM (active),,0.203 µM (active)
CN(C)CCNC(=O)c1ccc(NCCCN(C)CCCNc2ccc(C(=O)NCCN(C)C)c3nc4ccccc4c(O)c23)c2c(O)c3ccccc3nc12,< 0.01 µM (active),0.254 µM (active),< 0.0109 µM (active),0.234 µM (active),< 0.01 µM (active),0.0394 µM (active),,1.8 µM (inactive),< 0.0164 µM (active),< 0.01 µM (active),0.274 µM (active),0.161 µM (active),< 0.0211 µM (active),< 0.01 µM (active),0.0171 µM (active),< 0.01 µM (active),0.0223 µM (active),< 0.01 µM (active)
Cc1cc(S(=O)(=O)Nc2nc3cscc3c(=O)n2N)c(S)cc1Cl,54.6 µM (inactive),55.1 µM (inactive),> 100 µM (inactive),,50.7 µM (inactive),60.5 µM (inactive),51.4 µM (inactive),26.3 µM (inactive),39.3 µM (inactive),48.8 µM (inactive),34.7 µM (inactive),73.3 µM (inactive),33.4 µM (inactive),56.4 µM (inactive),54.7 µM (inactive),39.6 µM (inactive),,17.7 µM (inactive)
CN(C)c1cccc2c(S(=O)(=O)NCCN)cccc12 [DANSYL ETHYLENEDIAMINE],> 100 µM (inactive),,> 100 µM (inactive),> 100 µM (inactive),33.7 µM (inactive),> 100 µM (inactive),> 100 µM (inactive),> 100 µM (inactive),> 100 µM (inactive),> 100 µM (inactive),> 100 µM (inactive),> 100 µM (inactive),> 100 µM (inactive),> 100 µM (inactive),> 100 µM (inactive),> 100 µM (inactive),> 100 µM (inactive),> 100 µM (inactive)
